Measured values taken from patent publication US20100115663A1, “Acetyl-CoA Carboxylase Herbicide Resistant Sorghum” (priority 2007, published 2010).

How the values were obtained:
[1] = test system: wild sorghum populations from Bolivia; assay: Greenhouse herbicide spray selection, wild accessions; assay type: in vivo; settings: 83 wild populations
Source text: (§1) Seeds of 83 wild sorghum populations from Bolivia were planted in a greenhouse for comparison with Tx2783, an herbicide susceptible elite sorghum genotype. Wild sorghum genotypes were planted in flats containing MetroMix 360 potting soil (Sun Gro) and greenhouse grown. Tx2783 was planted with the wild accessions in each flat for comparison. In one selection using clethodim, plants were sprayed with 0.09 lb ai clethodim acre^−1 at 18 days after planting. […] In one selection using fluazifop-P, flats with Tx2783 and wild accessions were sprayed with a rate of 0.12 lb ai fluazifop-P acre^−1 at 18 days after planting and with 0.36 lb ai fluazifop-P acre^−1 at 32 days after planting. […] In a third experiment, plants were sprayed with a rate of 0.05 lb ai quizalofop acre^−1 at 18 days after planting and with 0.11 lb ai quizalofop acre^−1 at 32 days after planting.

[2] = test system: F1 generation of cross ATx623 x Bol-71; assay: Mode of inheritance greenhouse spray test, F1 hybrid; assay type: in vivo, sorghum; settings: 0.045 lb ai fluazifop-P acre^-1 at 14 days after planting; n=3
Experimental: (§2) The mode of inheritance of herbicide tolerance was determined by planting seeds of Bol-71, F1 generation of cross ATx623 x Bol-71, and Pioneer 84G62 (herbicide susceptible control) in flats containing MetroMix 360 potting soil in a greenhouse using a randomized complete block design (n=3). The plants were sprayed with 0.045 lb ai fluazifop-P acre^−1 at 14 days after planting. Pioneer 84G62 died between 12-16 days after spraying.

[3] = test system: Bol-71; assay: Mode of inheritance greenhouse spray test, Bol-71; assay type: in vivo, wild sorghum; settings: 0.045 lb ai fluazifop-P acre^-1 at 14 days after planting; n=3
Experimental: as §2

[4] = test system: Tx2783, an herbicide susceptible elite sorghum genotype; assay: Greenhouse herbicide spray selection, susceptible check; assay type: in vivo
Source text: as §1

[5] = test system: Bol-71 wild sorghum genotype; assay: Greenhouse herbicide spray selection, Bol-71; assay type: in vivo
Source text: as §1

[6] = test system: Pioneer 84G62 (herbicide susceptible control); assay: Mode of inheritance greenhouse spray test, susceptible control; assay type: in vivo, sorghum; settings: 0.045 lb ai fluazifop-P acre^-1 at 14 days after planting; n=3
Experimental: as §2

[7] = 0.12 lb ai fluazifop-P acre^-1 at 18 days and 0.36 lb ai acre^-1 at 32 days after planting
[8] = 0.05 lb ai quizalofop acre^-1 at 18 days and 0.11 lb ai acre^-1 at 32 days after planting

Structure (SMILES) | plant response to spraying [1, 7] | herbicide damage [2] | herbicide damage [3] | plant response to spraying [4, 7] | tolerance to herbicide [5, 7] | time at which plants died [6] | plant response to spraying [1, 8] | plant response to spraying [4, 8] | tolerance to herbicide [5, 8]
C[C@@H](Oc1ccc(Oc2ccc(C(F)(F)F)cn2)cc1)C(=O)O [fluazifop-P] | many of the wild sorghums died | no herbicide damage | no herbicide damage | died | high levels of tolerance | 12-16 days after spraying |  |  | 
CC(Oc1ccc(Oc2cnc3cc(Cl)ccc3n2)cc1)C(=O)O (stereo not drawn) [quizalofop] |  |  |  |  |  |  | many of the wild sorghums died | died | high levels of tolerance
